{"source": "paper PMC12567082", "about": "“Silver(I) Complexes Bearing S-Alkyl Thiosalicylic Acid Derivatives: DNA/BSA Binding and Antitumor Activity In Vitro and In Vivo” (Pharmaceutics, 2025)", "key": {"CT-DNA [1]": {"test_system": "CT-DNA", "experiment": "UV-Vis absorption titration with CT-DNA", "type": "binding, calf", "conditions": "ΔG = −RT lnKb", "procedure": "All DNA-binding studies were conducted in 0.01 M phosphate-buffered saline (PBS, pH 7.40) at 25 °C. […] To eliminate absorbance from CT-DNA, identical amounts of DNA were added to both the test and reference solutions prior to spectral recording.\nIntrinsic binding constants (Kb) were calculated using the equation to determine the DNA-binding affinities of the complexes (1):[DNA]/(εa − εf) = [DNA]/(εb − εf) + 1 [Kb(εb − εf)](1)\n[DNA] represents the concentration of DNA; apparent extinction coefficient, εa, was calculated as the ratio of the observed absorbance to the concentration of the complex (Aobs/[complex]); and εb and εf correspond to the extinction coefficients of the complex in the fully bound and free forms, respectively. Kb was determined from the ratio of the slope to the intercept obtained from the corresponding linear plots."}, "CT-DNA [2]": {"test_system": "CT-DNA", "experiment": "EB–CT-DNA fluorescence quenching", "type": "binding, calf", "conditions": "EB–CT-DNA 8.52 × 10^−5 M, PBS pH 7.4", "procedure": "All samples were prepared in phosphate-buffered saline (PBS, pH 7.4). Stern–Volmer Equation (2) was used to interpret the fluorescence quenching data."}, "CT-DNA [3]": {"test_system": "CT-DNA", "experiment": "Viscosity measurements of DNA solution", "design": "species or system calf", "conditions": "up to r = 1.0, 8 µM DNA", "procedure": "Viscosity measurements were performed to evaluate the interaction of C2 and C4 with DNA. The flow time was measured with a digital stopwatch. For each concentration, six replicate measurements were taken, and the average flow time was used for analysis. The data were presented as (η/η0)^1/3 against r, where η is the viscosity of DNA in the presence of complex, and η0 is the viscosity of DNA alone in the buffered solution. The viscosity value was calculated from the observed flow time of DNA-containing solution (t) corrected for the flow time of buffer alone (t0), η = (t − t0)/t0."}, "BSA": {"target": "T1, BSA (Bos taurus, UniProt P02769)", "T1 construct": "purchased Sigma-Aldrich", "T1 sequence (P02769 25-607)": "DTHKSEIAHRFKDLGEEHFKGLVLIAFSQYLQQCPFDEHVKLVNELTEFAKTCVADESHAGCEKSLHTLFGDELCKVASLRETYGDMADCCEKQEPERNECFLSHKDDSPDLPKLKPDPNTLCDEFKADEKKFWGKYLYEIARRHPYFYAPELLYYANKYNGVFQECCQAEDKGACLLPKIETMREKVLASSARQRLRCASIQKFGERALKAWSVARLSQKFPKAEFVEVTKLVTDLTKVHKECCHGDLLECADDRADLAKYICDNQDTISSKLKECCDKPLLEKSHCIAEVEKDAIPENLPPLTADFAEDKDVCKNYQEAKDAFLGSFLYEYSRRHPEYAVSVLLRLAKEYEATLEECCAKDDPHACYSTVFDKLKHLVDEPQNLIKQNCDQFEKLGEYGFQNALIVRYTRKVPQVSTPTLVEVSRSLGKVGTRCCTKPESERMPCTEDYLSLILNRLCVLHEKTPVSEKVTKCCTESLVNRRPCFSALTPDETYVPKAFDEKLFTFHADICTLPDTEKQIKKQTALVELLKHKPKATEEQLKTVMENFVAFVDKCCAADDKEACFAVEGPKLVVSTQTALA", "experiment": "BSA tryptophan fluorescence quenching", "type": "binding, bovine", "procedure": "The protein binding study was carried out using tryptophan fluorescence quenching experiments with BSA. […] Fluorescence emission spectra were recorded between 300 and 500 nm, with excitation at 295 nm.\nThe quenching constant Ksv was determined based on the Stern–Volmer relationship, as described by Equation (3):I0/I = 1 + kqτ0[Q] = 1 + Ksv[Q](3)\nIn this equation, I0 and I refer to the fluorescence intensities of BSA measured without and with the quencher (complex), τ0 represents the average fluorescence lifetime of free BSA (∼10^−8 s), and [Q] indicates the quencher concentration.\nParameters such as association binding constant (K) and the number of binding sites per albumin (n) were obtained from Scatchard Equation (4):(ΔI/I0)/[Q] = nK − KΔI/I0(4)\nTo minimize inner filter, both intensities of fluorescence originating from excitation and emission light absorption and re-absorption were corrected by employing Equation (5); Icor and Iobs are the corrected and observed fluorescence intensities, respectively, and Aex and Aem represent the absorbance of the metal complex at the excitation and emission wavelengths, respectively.Icor = Iobs · […]^(Aex + Aem)/2(5)"}, "[4]": {"test_system": "Mouse breast cancer (4T1)", "experiment": "MTT assay 4T1", "type": "cell-based", "conditions": "4T1, 48 h", "procedure": "(§1) Mouse breast cancer (4T1), human breast cancer (MDA-MB-468), mouse colon cancer (CT26), human colon cancer (HCT-116), mouse lung cancer (LLC1), human lung cancer (A549), mouse mesenchymal stem cells (mMSC), and human fibroblast cell lines (MRC-5) were used in this study and were consistently cultured in complete Dulbecco’s Modified Eagle Medium (DMEM) (Sigma-Aldrich, St. Louis, MO, USA) in incubator (5% CO2) under standard conditions. Complete DMEM was Dulbecco’s Modified Eagle Medium supplemented with 10% fetal bovine serum (FBS), 1 mmol/L penicillin–streptomycin, 1 mmol/L mixed nonessential amino acids, and 2 mmol/L L-glutamine (Sigma-Aldrich, St. Louis, MO, USA). All cancer cell lines and MRC-5 cell line were obtained from American Type Culture Collection (ATCC, Manassas, VA, USA), but mMSC was manufactured by Gibco (Middlesex County, MA, USA).\n(§2) In 96-well microplates, we seeded cancer and non-cancer cells, more exactly 5 × 10^3 cells per well in 100 μL of complete DMEM (Sigma-Aldrich, St. Louis, MO, USA). […] Tested concentration range for all metal-based substances was 3.9–500 μM. After incubation with MTT solution (5 mg/mL; pH 7.2) for 4 h, optical density was determined using Zenyth 3100 microplate multimode detector (Salzburg, Austria). All experiments were performed three times, each in triplicate, and the IC50 values as well as selectivity indexes (IC50 for mMSC or MRC-5/IC50 for mouse or human cancer cells) were calculated."}, "[5]": {"test_system": "human breast cancer (MDA-MB-468)", "experiment": "MTT assay MDA-MB-468", "type": "cell-based", "procedure": "as §1, §2"}, "mouse lung cancer (LLC1)": {"test_system": "mouse lung cancer (LLC1)", "experiment": "MTT assay LLC1", "type": "cell-based", "procedure": "as §1, §2"}, "human lung cancer (A549)": {"test_system": "human lung cancer (A549)", "experiment": "MTT assay A549", "type": "cell-based", "procedure": "as §1, §2"}, "[6]": {"test_system": "mouse mesenchymal stem cells (mMSC)", "experiment": "MTT assay mMSC", "type": "cell-based", "procedure": "as §1, §2"}, "[7]": {"test_system": "human fibroblast cell lines (MRC-5)", "experiment": "MTT assay MRC-5", "type": "cell-based", "procedure": "as §1, §2"}, "CT26 cells": {"test_system": "CT26 cells", "experiment": "Annexin V/PI apoptosis in CT26", "type": "cell-based, mouse", "conditions": "0.5 μM for 24 h", "procedure": "(§3) The following supporting information can be downloaded at https://www.mdpi.com/article/10.3390/pharmaceutics17101340/s1. NMR and FTIR spectra of free ligands and complexes. Figure S1. […] Inset: Plot of [DNA]/(εA − εf) vs. [DNA]. Figure S2. Relative viscosity (η/η0) ^1/3 of CT-DNA (8 µM) in PBS buffer solution with the addition of increasing amounts (r) of C2 and C4 complexes. Figure S3. […] [EB] = 8.52 × 10^−5 M; [DNA] = 8.52 × 10^−5 M; [complex] = (0–6.82) × 10^−5; λex = 527 nm. Arrows show the intensity changes upon increasing the concentration of the complex. Inset graph: Plot of I0/I vs. [Q]. Figure S4. […] [BSA] = 2 μM; [complex] = 0–8 μM; λex = 295 nm. Arrows show the intensity changes upon increasing the concentration of the complex. Inset graph: Plot of I0/I vs. [Q]. Figure S5. […] Figure S6. Dose-dependent cytotoxicity of silver(I) complexes with S-alkyl derivatives of thiosalicylic acid. […] All data are presented as mean values ± SD from three independent experiments performed in triplicate. Figure S7. Dose-dependent cytotoxicity of S-alkyl derivatives of thiosalicylic acid. […] All data are presented as mean values ± SD from three independent experiments performed in triplicate. Figure S8. […] Apoptotic rates of C2-treated (0.5 μM for 24 h) as well as untreated CT26 and HCT116 cells were determined by flow cytometry using Annexin V (FITC) and PI double staining. […]"}, "HCT116 cells": {"test_system": "HCT116 cells", "experiment": "Annexin V/PI apoptosis in HCT116", "type": "cell-based, human", "conditions": "0.5 μM for 24 h", "procedure": "as §3"}}}
{"smiles": "CCSc1ccccc1C(=O)[O][Ag].CCSc1ccccc1C(=O)[O][Ag]", "note": "[C2, [Ag2(S-ethyl-thiosal)2]]", "values": [{"measurement": "ΔG (Gibbs free energy)", "setting": "CT-DNA [1]", "value": -6.76, "unit": "kcal/mol"}, {"measurement": "Ksv EB (Stern–Volmer constant)", "setting": "CT-DNA [2]", "value": "(1.1 ± 0.1) × 10^4 M^−1"}, {"measurement": "viscosity of CT-DNA", "setting": "CT-DNA [3]", "value": "modest rise in the viscosity"}, {"measurement": "kq (quenching rate constant)", "setting": "BSA; BSA 2 µM", "value": "(1.4 ± 0.1) × 10^13 M^−1 s^−1"}, {"measurement": "Ksv (Stern–Volmer constant)", "setting": "BSA; BSA 2 µM, λex 295 nm", "value": "(1.4 ± 0.1) × 10^5 M^−1"}, {"measurement": "K (binding constant)", "setting": "BSA; Scatchard equation", "value": "(1.3 ± 0.1) × 10^5 M^−1"}, {"measurement": "n (number of binding sites)", "setting": "BSA; Scatchard equation", "value": 1.1}, {"measurement": "IC50", "setting": "[4]", "value": "4.84 ± 0.92", "unit": "µM"}, {"measurement": "Selectivity Index (IC50 mMSC or MRC-5/ IC50 Cancer Cell)", "setting": "[4]", "value": 0.93}, {"measurement": "IC50", "setting": "[5]; MDA-MB-468, 24 h", "value": "8.67 ± 1.13", "unit": "µM"}, {"measurement": "Selectivity Index (IC50 mMSC or MRC-5/ IC50 Cancer Cell)", "setting": "[5]; MDA-MB-468, 24 h", "value": 4.39}, {"measurement": "IC50", "setting": "[5]; MDA-MB-468, 48 h", "value": "5.43 ± 0.34", "unit": "µM"}, {"measurement": "Selectivity Index (IC50 mMSC or MRC-5/ IC50 Cancer Cell)", "setting": "[5]; MDA-MB-468, 48 h", "value": 7.95}, {"measurement": "IC50", "setting": "mouse lung cancer (LLC1); LLC1, 24 h", "value": "18.2 ± 0.93", "unit": "µM"}, {"measurement": "Selectivity Index (IC50 mMSC or MRC-5/ IC50 Cancer Cell)", "setting": "mouse lung cancer (LLC1); LLC1, 24 h", "value": 0.24}, {"measurement": "IC50", "setting": "mouse lung cancer (LLC1); LLC1, 48 h", "value": "20.2 ± 0.79", "unit": "µM"}, {"measurement": "Selectivity Index (IC50 mMSC or MRC-5/ IC50 Cancer Cell)", "setting": "mouse lung cancer (LLC1); LLC1, 48 h", "value": 0.22}, {"measurement": "IC50", "setting": "human lung cancer (A549); A549, 24 h", "value": "37.8 ± 1.01", "unit": "µM"}, {"measurement": "Selectivity Index (IC50 mMSC or MRC-5/ IC50 Cancer Cell)", "setting": "human lung cancer (A549); A549, 24 h", "value": 1.01}, {"measurement": "IC50", "setting": "human lung cancer (A549); A549, 48 h", "value": "50.2 ± 1.07", "unit": "µM"}, {"measurement": "Selectivity Index (IC50 mMSC or MRC-5/ IC50 Cancer Cell)", "setting": "human lung cancer (A549); A549, 48 h", "value": 0.86}, {"measurement": "IC50", "setting": "[6]; 24 h", "value": "4.29 ± 0.92", "unit": "µM"}, {"measurement": "IC50", "setting": "[6]; 48 h", "value": "4.52 ± 0.48", "unit": "µM"}, {"measurement": "IC50", "setting": "[7]; MRC-5, 24 h", "value": "38 ± 1.91", "unit": "µM"}, {"measurement": "IC50", "setting": "[7]; MRC-5, 48 h", "value": "43.2 ± 1.23", "unit": "µM"}, {"measurement": "apoptosis of CT26 cells", "setting": "CT26 cells", "value": "underwent apoptosis"}, {"measurement": "apoptosis of HCT116 cells", "setting": "HCT116 cells", "value": "underwent apoptosis"}]}
